Data as given in ChEMBL document CHEMBL1201862, “PubChem BioAssay data set” (2004).
The source made the active and inactive calls.

What was measured:
[1] = target: T1, fMet-Leu-Phe receptor (Homo sapiens, UniProt P21462); test: FPR ligands, dose response (AID 519); format: functional
T1 sequence (P21462 whole entry): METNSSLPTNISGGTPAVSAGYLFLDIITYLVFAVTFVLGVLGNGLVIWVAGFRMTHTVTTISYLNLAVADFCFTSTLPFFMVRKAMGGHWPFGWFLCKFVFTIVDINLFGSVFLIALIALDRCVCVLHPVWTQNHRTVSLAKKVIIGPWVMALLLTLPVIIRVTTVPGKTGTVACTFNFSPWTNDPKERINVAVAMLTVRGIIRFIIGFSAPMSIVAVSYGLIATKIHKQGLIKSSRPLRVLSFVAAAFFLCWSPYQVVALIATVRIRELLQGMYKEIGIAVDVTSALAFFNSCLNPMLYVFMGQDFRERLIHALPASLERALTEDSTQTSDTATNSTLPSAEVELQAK

[2] = target: Mitogen-activated protein kinase 10 (Homo sapiens, UniProt P53779); test: Dose response biochemical screening assay for inhibitors of c-Jun N-Terminal Kinase 3 (JNK3). [Related pubchem assays: 746 ]
[3] = target: T2, Protein skinhead-1 (Caenorhabditis elegans, UniProt P34707); format: functional
T2 sequence (P34707 whole entry): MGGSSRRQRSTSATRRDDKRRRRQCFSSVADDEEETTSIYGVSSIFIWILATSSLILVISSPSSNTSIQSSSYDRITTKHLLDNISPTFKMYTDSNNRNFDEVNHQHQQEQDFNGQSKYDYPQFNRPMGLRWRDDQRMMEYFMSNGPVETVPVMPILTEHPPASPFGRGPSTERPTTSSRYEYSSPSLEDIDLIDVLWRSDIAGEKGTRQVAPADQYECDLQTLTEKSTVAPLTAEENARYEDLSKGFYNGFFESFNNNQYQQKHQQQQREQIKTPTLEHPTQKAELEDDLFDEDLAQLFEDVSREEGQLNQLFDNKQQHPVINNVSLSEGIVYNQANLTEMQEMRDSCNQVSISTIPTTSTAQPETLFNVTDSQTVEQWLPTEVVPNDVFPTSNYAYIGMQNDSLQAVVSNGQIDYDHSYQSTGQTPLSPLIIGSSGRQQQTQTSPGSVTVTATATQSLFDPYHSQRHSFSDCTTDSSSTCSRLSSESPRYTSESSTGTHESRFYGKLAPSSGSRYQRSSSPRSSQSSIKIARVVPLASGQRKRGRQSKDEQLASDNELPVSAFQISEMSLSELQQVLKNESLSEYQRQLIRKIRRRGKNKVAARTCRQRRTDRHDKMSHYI

[4] = cells
[5] = target: Major prion protein (Homo sapiens, UniProt P04156); format: functional, cell-based
[6] = P. falciparum late gametocyte killing, dose response, luminescence (AID 1117278); format: functional, cell-based;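 further: gametocytes exposed to compound for 24 hours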
[7] = Jurkat T cell cytotoxicity, dose response, cytotoxicity control for P. falciparum gametocyte viability project, luminescence (AID 1117277); format: functional, cell-based;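 further: potency reflects loss of cellular ATP meaning fewer viable cells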
[8] = target: Cytochrome P450 3A4 (Homo sapiens, UniProt P08684);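 further: CYP3A4 tested as one member of a cytochrome P450 panel screen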
[9] = target: T3, Aryl hydrocarbon receptor (Homo sapiens, UniProt P35869); test: Luminescence-based cell-based high throughput dose response assay for activators of the Aryl Hydrocarbon Receptor (AHR). [Related pubchem assays: 2796 (Primary screen (AHR activators in singlicate)), 2845 (Confirmation screen (AHR activators in triplicate)), 434939 (Counterscreen (PXR activators in triplicate)), 2804 (Summary (AHR activators))]; format: ADME
T3 sequence (P35869 whole entry): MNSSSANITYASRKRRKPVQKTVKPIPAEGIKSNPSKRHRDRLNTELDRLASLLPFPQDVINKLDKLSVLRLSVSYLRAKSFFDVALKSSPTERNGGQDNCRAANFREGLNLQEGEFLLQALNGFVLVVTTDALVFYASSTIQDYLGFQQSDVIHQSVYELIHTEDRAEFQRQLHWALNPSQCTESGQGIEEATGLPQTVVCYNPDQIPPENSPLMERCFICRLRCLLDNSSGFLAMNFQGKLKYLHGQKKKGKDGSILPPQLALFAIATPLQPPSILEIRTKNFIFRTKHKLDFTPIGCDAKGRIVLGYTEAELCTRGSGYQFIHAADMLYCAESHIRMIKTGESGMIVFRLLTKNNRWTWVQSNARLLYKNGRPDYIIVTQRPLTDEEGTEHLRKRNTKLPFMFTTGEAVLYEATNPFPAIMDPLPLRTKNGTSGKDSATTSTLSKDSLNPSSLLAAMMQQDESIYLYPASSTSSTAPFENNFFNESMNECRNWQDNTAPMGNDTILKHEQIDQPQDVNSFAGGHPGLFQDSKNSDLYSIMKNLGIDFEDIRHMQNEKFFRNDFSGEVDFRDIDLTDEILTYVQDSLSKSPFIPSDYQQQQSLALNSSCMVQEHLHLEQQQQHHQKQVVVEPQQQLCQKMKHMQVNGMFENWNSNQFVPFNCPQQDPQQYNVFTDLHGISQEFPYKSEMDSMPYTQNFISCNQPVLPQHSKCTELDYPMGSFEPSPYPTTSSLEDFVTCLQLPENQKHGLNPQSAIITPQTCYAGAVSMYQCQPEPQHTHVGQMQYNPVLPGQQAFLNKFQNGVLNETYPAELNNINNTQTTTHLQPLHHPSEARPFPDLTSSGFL

[10] = cells; remark: listed apart in the source
[11] = target: T4, Oxysterols receptor LXR-beta (Homo sapiens, UniProt P55055); format: functional, cell-based;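 further: Cell-based luminescence dose-response assay of agonist activity at LXR, run as a confirmatory counterscreen to a daf-12 agonist screen; HEK293 cells with Gal4-LXR fusion and GAL4-driven luciferase reporter; agonist potency from rising luciferase signal of a Gal4-LXR reporter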
T4 sequence (P55055 whole entry): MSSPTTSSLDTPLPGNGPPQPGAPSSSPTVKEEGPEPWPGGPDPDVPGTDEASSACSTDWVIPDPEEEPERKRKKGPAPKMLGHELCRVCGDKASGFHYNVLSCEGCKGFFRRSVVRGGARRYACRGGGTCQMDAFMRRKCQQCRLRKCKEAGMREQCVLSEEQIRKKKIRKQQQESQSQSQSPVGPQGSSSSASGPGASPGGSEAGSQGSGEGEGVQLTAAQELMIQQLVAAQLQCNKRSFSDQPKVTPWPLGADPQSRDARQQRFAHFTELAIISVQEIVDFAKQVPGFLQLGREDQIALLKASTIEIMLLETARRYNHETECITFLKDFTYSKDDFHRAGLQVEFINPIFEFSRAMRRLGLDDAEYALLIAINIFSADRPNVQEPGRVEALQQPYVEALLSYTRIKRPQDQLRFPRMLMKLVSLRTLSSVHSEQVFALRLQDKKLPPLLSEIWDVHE

[12] = Luminescence Cell-Based Dose Response to Identify Activators of Luciferase Translation or Activity in H4-C Neuroglioblastoma Cells. [Related pubchem assays: 1829 (Project Summary), 1814 (Primary HTS)]; format: functional
[13] = Luminescence Cell-Based Dose Confirmation HTS to Identify Activators of 5'UTR Stem-Loop Driven Alpha-Synuclein mRNA Translation in H4 Neuroglioblastoma Cells. [Related pubchem assays: 1829 (Project Summary), 1814 (Primary HTS)]; format: functional
[14] = Luminescence Cell-Based Dose Response HTS to Identify Activators of Luciferase Translation or Activity in H4 […] Cells. [Related pubchem assays: 1829 (Project Summary), 1814 (Primary HTS)]; format: functional
[15] = Luminescence Cell-Based Dose Response to Identify Activators of 5'UTR Stem-Loop Driven Prion Protein mRNA Translation in H4-C Neuroglioblastoma Cells. [Related pubchem assays: 1829 (Project Summary), 1814 (Primary HTS)]; format: functional
[16] = system: H4; test: Luminescence Cell-Based Dose Response HTS to Identify Activators of 5'UTR Stem-Loop Driven Prion Protein mRNA Translation in H4 Neuroglioblastoma Cells. [Related pubchem assays: 1829 (Project Summary), 1814 (Primary HTS)]; format: functional; settings: Homo sapiens
[17] = Luminescence Cell-Based Dose Confirmation to Identify Activators of 5'UTR Stem-Loop Driven Alpha-Synuclein mRNA Translation in H4 Neuroglioblastoma Cells. [Related pubchem assays: 1829 (Project Summary), 1814 (Primary HTS)]; format: functional

CCCOc1ccc(C2C(C(=O)c3ccc(C)o3)=C(O)C(=O)N2Cc2cccnc2)cc1 (stereo not drawn)
Ki [1]: 42.7 µM (inactive)

COc1ccc(-c2nnc(-c3ccc(Br)o3)o2)cc1OC
IC50 [2]: > 93.1 µM (not active)
IC50 [3]: > 100 µM (inactive)
IC50 [4]: > 138 µM (inactive)
IC50 [5]: 4.59 µM (active)

O=C(O)CCN1C(=O)c2ccc(NC(=O)c3ccco3)cc2C1=O
IC50 [6]: > 109 µM (inactive)
IC50 [7]: > 83.2 µM (inactive)

COc1cccc2c(O)c(C(=O)NCc3cccs3)cnc12
AC50 [8]: 1.78 µM (inconclusive)
IC50 [2]: 18.9 µM (not active)

CC(=O)Nc1cccc2c1C(=O)N(c1ccc(C)cc1)C2=O
EC50 [9]: 1.09 µM (active)

CC(C)c1ccc(-n2nc3ccc(N)cc3n2)cc1
EC50 [10]: > 67.6 µM (inactive)
EC50 [11]: > 67.6 µM (inactive)

CCOc1c(Cl)cc(C(=O)Nc2cccc(C(=O)O)c2)cc1Cl
IC50 [6]: > 109 µM (inactive)
IC50 [7]: > 83.2 µM (inactive)

Cc1ccc(NC(=O)C2C(=O)N(CCO)C3(C)CC2c2ccccc2O3)cc1 (stereo not drawn)
Ki [1]: > 66.7 µM (inactive)

Cc1cc(C)cc(COn2ccnc2)c1
IC50 [6]: > 109 µM (inactive)
IC50 [7]: > 83.4 µM (inactive)

Cc1nc(N)nc(Nc2ccc(Cl)cc2)c1Br
EC50 [9]: 0.351 µM (active)

Cc1ccc2c(c1)Cc1nc3ccccc3nc1-2
EC50 [10]: > 67.6 µM (inactive)
EC50 [11]: > 67.6 µM (inactive)

COc1cccc(NC(=O)c2ccncc2)c1
IC50 [6]: > 109 µM (inactive)
IC50 [7]: > 83.4 µM (inactive)

Oc1ncnc2nn(-c3ccccc3)nc12
EC50 [12]: > 12 µM (not active)
EC50 [13]: < 0.1 µM (active)
EC50 [14]: > 120 µM (not active)
EC50 [15]: 4.54 µM (active)
EC50 [16]: > 120 µM (not active)
EC50 [17]: > 12 µM (not active)
